A short description of this experiment: CD69 Whole Blood Assay (CD69 Hu Blood FACS). The class given is cell-based, human. The note with it: Lymphocyte; human whole blood, anti-IgM activated B lymphocytes, FACS; IC70; Table 1; read-out: CD69 Hu Blood FACS IC70. The text has this: A CD69 Whole Blood Assay can be conducted on Formula I compounds to determine the ability of compounds to inhibit the production of CD69 by B lymphocytes in human whole blood activated by crosslinking surface IgM with goat F(ab′)2 anti-human IgM (Example 907). CD69 is a type II C-type lectin involved in lymphocyte migration and cytokine secretion. CD69 expression represents one of the earliest available indicators of leukocyte activation and its rapid induction occurs through transcriptional activation (Vazquez et al (2009) Jour. of Immunology Published Oct. 19, 2009, doi:10.4049/jimmunol.0900839). Concentration-dependent inhibition of antigen receptor stimulation by selective Btk inhibitors induces cell surface expression of the lymphocyte activation marker CD69 (Honigberg et al (2010) Proc. Natl. Acad. Sci. 107(29):13075-13080). Thus, CD69 inhibition by selective Btk inhibitors may be correlated with therapeutic efficacy of certain B-cell disorders.

Experimental findings from patent US10045983B2, “Heteroaryl pyridone and aza-pyrodine compounds” (Genentech, Inc., priority 2011, dated 2018) are described below.

In general, IC70 refers to the point of the concentration-response curve where the effect stands at 70%. For the molecule `C[C@H]1CN(C2COC2)CCN1c1ccc(Nc2cc(-c3ccnc(N4CCn5c(cc6c5CCCC6)C4=O)c3CO)cn(C)c2=O)nc1` [Example 119, (S)-2-(3-(Hydroxymethyl)-4-(1-methyl-5-(5-(2-methyl-4-(oxetan-3-yl)piperazin-1-yl)pyridin-2-ylamino)-6-oxo-1,6-dihydropyridin-3-yl)pyridin-2-yl)-3,4,6,7,8,9-hexahydropyrazino[1,2-a]indol-1(2H)-one], the IC70 is 35.6 nM.

On to `Cn1cc(-c2ccnc(N3CCn4c(cc5c4CCCC5)C3=O)c2CO)cc(Nc2ccc(N3CCN(CC(C)(C)O)CC3)cn2)c1=O` [Example 120, 2-(4-(5-(5-(4-(2-Hydroxy-2-methylpropyl)piperazin-1-yl)pyridin-2-ylamino)-1-methyl-6-oxo-1,6-dihydropyridin-3-yl)-3-(hydroxymethyl)pyridin-2-yl)-3,4,6,7,8,9-hexahydropyrazino[1,2-a]indol-1(2H)-one], for which the IC70 is 283 nM.

For `Cn1cc(-c2ccnc(-n3ccn4c5c(cc4c3=O)CCCC5)c2CO)cc(Nc2ccc(N3CCN(C4COC4)CC3)cn2)c1=O` [Example 121, 2-(3-(hydroxymethyl)-4-(1-methyl-5-(5-(4-(oxetan-3-yl)piperazin-1-yl)pyridine-2-ylamino)-6-oxo-1,6-dihydropyridin-3-yl)pyridin-2-yl)-6,7,8,9-tetrahydropyrazino[1,2-a]indol-1(2H)-one], the IC70 came out at 32.3 nM.

`C[C@@H]1CN(c2ccc(Nc3cc(-c4ccnc(N5CCn6c(cc7c6CCCC7)C5=O)c4CO)cn(C)c3=O)nc2)[C@@H](C)CN1C1COC1` [Example 122, 2-(4-(5-(5-((2S,5R)-2,5-Dimethyl-4-(oxetan-3-yl)piperazin-1-yl)pyridin-2-ylamino)-1-methyl-6-oxo-1,6-dihydropyridin-3-yl)-3-(hydroxymethyl)pyridin-2-yl)-3,4,6,7,8,9-hexahydropyrazino[1,2-a]indol-1(2H)-one]: the IC70 was 12.7 nM.

Consider `Cn1cc(-c2ccnc(N3CCn4c(cc5c4CCCC5)C3=O)c2CO)cc(Nc2ccc(N3CCN(CCO)CC3)cn2)c1=O` [Example 123, 2-(4-(5-(5-(4-(2-Hydroxyethyl)piperazin-1-yl)pyridin-2-ylamino)-1-methyl-6-oxo-1,6-dihydropyridin-3-yl)-3-(hydroxymethyl)pyridin-2-yl)-3,4,6,7,8,9-hexahydro-pyrazino[1,2-a]indol-1(2H)-one], for which the IC70 turned out to be 33.1 nM.

Take `Cn1cc(-c2ccnc(-n3ncc4c5c(sc4c3=O)CCCC5)c2CO)cc(Nc2ccc(N3CCN(C4COC4)CC3)cn2)c1=O` [Example 124, 3-Hydroxymethyl-4-[1-methyl-5-(5-(4-(oxetan-3-yl)piperazin-1-yl)pyridine-2-ylamino)-6-oxo-1,6-dihydropyridin-3-yl]-2-{6-oxo-8-thia-4,5-diazatricyclo[7.4.0.0^2,7]trideca-1(9),2(7),3-trien-5-yl}pyridine]: the IC70 came out at 36.2 nM.

In the case of `Cn1cc(-c2ccnc(N3CCn4c(cc5c4CCCC5)C3=O)c2CO)cc(Nc2cc3n(n2)CCN(C2COC2)C3)c1=O` [Example 125, 2-(3-(Hydroxymethyl)-4-(1-methyl-5-(5-(oxetan-3-yl)-4,5,6,7-tetrahydropyrazolo[1,5-a]pyrazin-2-ylamino)-6-oxo-1,6-dihydropyridin-3-yl)pyridin-2-yl)-3,4,6,7,8,9-hexahydropyrazino[1,2-a]indol-1(2H)-one], the IC70 came out at 87.3 nM.

Consider `Cn1cc(-c2cncc(-n3ccn4c5c(cc4c3=O)CCCC5)c2CO)cc(Nc2ccc(N3CCN(C4COC4)CC3)cn2)c1=O` [Example 126, 2-(4-(Hydroxymethyl)-5-(1-methyl-5-(5-(4-(oxetan-3-yl)piperazin-1-yl)pyridin-2-ylamino)-6-oxo-1,6-dihydropyridin-3-yl)pyridin-3-yl)-6,7,8,9-tetrahydropyrazino[1,2-a]indol-1(2H)-one], for which the IC70 came out at 138 nM.

With `Cn1cc(-c2ccnc(N3CCn4c(cc5c4CCCC5)C3=O)c2CO)cc(Nc2ccc(N3CCNCC3)cn2)c1=O` [Example 127, 2-(3-(Hydroxymethyl)-4-(1-methyl-6-oxo-5-(5-(piperazin-1-yl)pyridin-2-ylamino)-1,6-dihydropyridin-3-yl)pyridin-2-yl)-3,4,6,7,8,9-hexahydropyrazino[1,2-a]indol-1(2H)-one], the IC70 worked out at 141 nM.

On to `Cn1cc(-c2ccnc(N3CCn4c(cc5c4CCCC5)C3=O)c2CO)cc(Nc2cc3n(n2)CCN(C2CC2)C3)c1=O` [Example 128, 2-(4-(5-(5-Cyclopropyl-4,5,6,7-tetrahydropyrazolo[1,5-a]pyrazin-2-ylamino)-1-methyl-6-oxo-1,6-dihydropyridin-3-yl)-3-(hydroxymethyl)pyridin-2-yl)-3,4,6,7,8,9-hexahydropyrazino[1,2-a]indol-1(2H)-one], for which the IC70 amounted to 91.8 nM.

`Cn1cc(-c2ccnc(N3CCn4c(cc5c4CCCC5)C3=O)c2CO)cc(Nc2cc3n(n2)CCOC3)c1=O` [Example 129, 2-(4-(5-(6,7-Dihydro-4H-pyrazolo[5,1-c][1,4]oxazin-2-ylamino)-1-methyl-6-oxo-1,6-dihydropyridin-3-yl)-3-(hydroxymethyl)pyridin-2-yl)-3,4,6,7,8,9-hexahydropyrazino[1,2-a]indol-1(2H)-one]: the IC70 turned out to be 91.7 nM.

On to `C[C@H]1CN(C2COC2)CCN1c1ccc(Nc2cc(-c3ccnc(N4CCn5c(cc6c5CC(C)(C)C6)C4=O)c3CO)cn(C)c2=O)nc1` [Example 130, (3 S)-10-[4-[1-methyl-5-({5-[2-methyl 4-(oxetan-3-yl)piperazin-1-yl]pyridine-2-yl}amino)-6-oxo-1,6-dihydropyridin-3-yl]-3-(hydroxymethyl)pyridin-2-yl]-4,4-dimethyl-1,10-diazatricyclo[6.4.0.0^2,6]dodeca-2(6),7-dien-9-one], for which the IC70 came to 12 nM.

`CC[C@H]1CN(C2COC2)CCN1c1ccc(Nc2cc(-c3ccnc(N4CCn5c(cc6c5CCCC6)C4=O)c3CO)cn(C)c2=O)nc1` [Example 131, (S)-2-(4-(5-(5-(2-ethyl-4-(oxetan-3-yl)piperazin-1-yl)pyridin-2-ylamino)-1-methyl-6-oxo-1,6-dihydropyridin-3-yl)-3-(hydroxymethyl)pyridin-2-yl)-3,4,6,7,8,9-hexahydropyrazino[1,2-a]indol-1(2H)-one]: the 70% effect concentration (IC70) was determined as 15.5 nM.

For the molecule `Cn1nc(-c2ccnc(N3CCn4c(cc5c4CCCC5)C3=O)c2CO)cc(Nc2cc3n(n2)CCOC3)c1=O` [Example 132, 2-(4-(5-(6,7-Dihydro-4H-pyrazolo[5,1-c][1,4]oxazin-2-ylamino)-1-methyl-6-oxo-1,6-dihydropyridazin-3-yl)-3-(hydroxymethyl)pyridin-2-yl)-3,4,6,7,8,9-hexahydropyrazino[1,2-a]indol-1(2H)-one], the IC70 amounted to 263 nM.

For the molecule `CN1CCn2nc(Nc3cc(-c4ccnc(N5CCn6c(cc7c6CCCC7)C5=O)c4CO)nn(C)c3=O)cc2C1` [Example 133, 2-(3-(Hydroxymethyl)-4-(1-methyl-5-(5-methyl-4,5,6,7-tetrahydropyrazolo[1,5-a]pyrazin-2-ylamino)-6-oxo-1,6-dihydropyridazin-3-yl)pyridin-2-yl)-3,4,6,7,8,9-hexahydropyrazino[1,2-a]indol-1(2H)-one], the 70% effect concentration (IC70) was 227 nM.

For `Cn1cc(-c2ccnc(N3CCn4c5c(c(F)c4C3=O)CCCC5)c2CO)cc(Nc2ccc(N3CCN(C4COC4)CC3)cn2)c1=O` [Example 134, 10-Fluoro-2-(3-(hydroxymethyl)-4-(1-methyl-5-(5-(4-(oxetan-3-yl)piperazin-1-yl)pyridin-2-ylamino)-6-oxo-1,6-dihydropyridin-3-yl)pyridin-2-yl)-3,4,6,7,8,9-hexahydropyrazino[1,2-a]indol-1(2H)-one], the IC70 was determined as 94.4 nM.

For `CN1CCn2nc(Nc3cc(-c4ccnc(N5CCn6c7c(c(F)c6C5=O)CCCC7)c4CO)cn(C)c3=O)cc2C1` [Example 135, 10-Fluoro-2-(3-(hydroxymethyl)-4-(1-methyl-5-(5-methyl-4,5,6,7-tetrahydropyrazolo[1,5-a]pyrazin-2-ylamino)-6-oxo-1,6-dihydropyridin-3-yl)pyridin-2-yl)-3,4,6,7,8,9-hexahydropyrazino[1,2-a]indol-1(2H)-one], the IC70 amounted to 107 nM.

Regarding `C[C@H]1CN(C2COC2)CCN1c1ccc(Nc2cc(-c3ccnc(N4CCn5c6c(c(F)c5C4=O)CCCC6)c3CO)cn(C)c2=O)nc1` [Example 136, (S)-10-Fluoro-2-(3-(hydroxymethyl)-4-(1-methyl-5-(5-(2-methyl-4-(oxetan-3-yl)piperazin-1-yl)pyridin-2-ylamino)-6-oxo-1,6-dihydropyridin-3-yl)pyridin-2-yl)-3,4,6,7,8,9-hexahydropyrazino[1,2-a]indol-1(2H)-one], the IC70 is 30 nM.

For the molecule `C[C@@H]1CN(C2COC2)CCN1c1ccc(Nc2cc(-c3ccnc(N4CCn5c(cc6c5CCCC6)C4=O)c3CO)cn(C)c2=O)nc1` [Example 137, (R)-2-(3-(hydroxymethyl)-4-(1-methyl-5-(5-(2-methyl-4-(oxetan-3-yl)piperazin-1-yl)pyridin-2-ylamino)-6-oxo-1,6-dihydropyridin-3-yl)pyridin-2-yl)-3,4,6,7,8,9-hexa-hydropyrazino[1,2-a]indol-1(2H)-one], the IC70 came out at 64.6 nM.

Turning to `CN1CCn2nc(Nc3cc(-c4cncc(N5CCn6c(cc7c6CCCC7)C5=O)c4CO)cn(C)c3=O)cc2C1` [Example 138, 2-(4-(Hydroxymethyl)-5-(1-methyl-5-(5-methyl-4,5,6,7-tetrahydropyrazolo[1,5-a]pyrazin-2-ylamino)-6-oxo-1,6-dihydropyridin-3-yl)pyridin-3-yl)-3,4,6,7,8,9-hexahydropyrazino[1,2-a]indol-1(2H)-one], the IC70 is 353 nM.
